From US10688093B2, “Methods, compositions, and uses of novel Fyn kinase inhibitors” (priority 2015, dated 2020) come the findings set out here.

Chain of full-length recombinant human FYN A (P06241 whole entry): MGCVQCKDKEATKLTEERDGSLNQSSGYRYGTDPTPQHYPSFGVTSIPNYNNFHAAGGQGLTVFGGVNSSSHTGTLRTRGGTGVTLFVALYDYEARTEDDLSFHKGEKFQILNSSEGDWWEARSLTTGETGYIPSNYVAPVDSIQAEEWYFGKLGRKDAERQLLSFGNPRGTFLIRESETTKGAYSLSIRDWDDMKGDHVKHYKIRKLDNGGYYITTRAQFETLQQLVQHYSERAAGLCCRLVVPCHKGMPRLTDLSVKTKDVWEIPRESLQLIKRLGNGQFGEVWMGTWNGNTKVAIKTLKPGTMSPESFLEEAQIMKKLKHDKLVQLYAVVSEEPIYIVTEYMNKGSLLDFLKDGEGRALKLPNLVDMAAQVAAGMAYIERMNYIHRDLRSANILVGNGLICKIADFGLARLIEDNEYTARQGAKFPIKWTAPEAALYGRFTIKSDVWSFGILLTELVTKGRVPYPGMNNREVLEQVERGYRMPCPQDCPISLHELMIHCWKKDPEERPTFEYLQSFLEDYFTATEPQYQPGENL

The target in the first assay is full-length recombinant human FYN A (Homo sapiens (Human), UniProt P06241). Briefly: ADP-Glo Kinase Assay of FYN kinase inhibition. Type of assay: biochemical. Conditions: primary screen, initial compounds. In short, it runs like this:
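GST-tagged full-length FYN A (baculovirus, Sf9) at 3 pg preincubated 30 min RT with compound (10-point 3-fold series from 10 μM) in Tris pH 7.5/MgCl2 buffer. 12-mer tyrosine peptide plus 12.5 pmol ATP added, 90 min RT; ADP measured by ADP-Glo luminescence, IC50 from dose-response.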
A word on the IC50: it is the concentration that gives 50% inhibition. `Nc1cccc(-c2ccnc3[nH]nc(-c4ccncc4)c23)c1` [Compound 496, 3-[3-(4-pyridyl)-1H-pyrazolo[3,4-b]pyridin-4-yl]aniline]: the IC50 stood at 18000 nM. Same read-out and setting: next, `CC(C)N1CCN(c2ccc(-c3cn4c(-c5cccc(O)c5)cnc4cn3)cc2)CC1` [Compound 246, 3-[6-[4-(4-isopropyl-piperazin-1-yl)phenyl]imidazo [1,2-a]pyrazin-3-yl]phenol]: 2610 nM.

Regarding `COc1cc(-c2cc(-c3ccc(C)cc3)cnc2N)ccc1O` [382_0314_4139, 4-[2-amino-5-(p-tolyl)-3-pyridyl]-2-methoxy-phenol], the IC50 was 4340 nM. On the same count and under the same terms, next, `CS(=O)(=O)c1ccc(-c2cnc(N)c(-c3ccc(O)cc3)c2)cc1` [382_7249_0174, 4-[2-amino-5-(4-methylsulfonyl-phenyl)-3-pyridyl]phenol]: 1250 nM. Still for that read-out and setting: next, `COc1ccc(-c2cncc(-c3cccc(C(=O)NCCCN(C)C)c3)n2)cc1` [035_0280_0302, N-[3-(dimethylamino)propyl]-3-[6-(4-methoxyphenyl)pyrazin-2-yl]benzamide]: 9060 nM.

On to `Oc1cccc(-c2cnc3cnc(-c4cccs4)cn23)c1` [Compound 209, 3-[6-(2-thienyl)imidazo [1,2-a]pyrazin-3-yl]phenol], for which the IC50 turned out to be 2780 nM. Still for that read-out and setting: next, `CC(C)[C@@H](CO)Nc1ccc2ncc(-c3ccc(C#N)cc3)n2n1` [229_0254_0086, 4-[6-[[(1S)-1-(hydroxymethyl)-2-methyl-propyl]amino]imidazo[1,2-b]pyridazin-3-yl]benzonitrile]: 3180 nM; `CCCNc1ccc2ncc(-c3cccc(N)c3)n2n1` [229_0226_0005, 3-(3-aminophenyl)-N-propyl-imidazo[1,2-b]pyridazin-6-amine]: 932 nM. Same read-out and setting: next, `CN(C)CCCNC(=O)c1ccc(-c2cn3c(-c4cccc(O)c4)cnc3cn2)cc1` [Compound 242, N-[3-(dimethylamino)propyl]-4-[3-(3-hydroxyphenyl)imidazo[1,2-a]pyrazin-6-yl]benzamide]: 1610 nM; `CNC(=O)c1cccc(-c2ccc3ncc(-c4ccc(OC)c(OC)c4)n3n2)c1` [Compound 408, 3-[3-(3,4-dimethoxyphenyl)imidazo[1,2-b]pyridazin-6-yl]-N-methyl-benzamide]: 3490 nM. On the same count and under the same terms, next, `CNc1ccc2ncc(-c3cnn(C)c3)n2n1` [Compound 437_7468, N-methyl-3-(1-methylpyrazol-4-yl)imidazo[1,2-b]pyridazin-6-amine]: 5630 nM; `COc1ccc(-c2cnc3sc(NCCc4ccc(S(N)(=O)=O)cc4)nn23)cn1` [Compound 267, 4-[2-[[5-(6-methoxy-3-pyridyl)imidazo [2,1-b] [1,3,4]thiadiazol-2-yl]amino]ethyl]benzene-sulfonamide]: 2610 nM. As for `COc1cc(-c2cnc3ccc(NCc4cccc(Cl)c4)nn23)ccc1O` [229_0223_0314, 4-[6-[(3-chlorophenyl)methylamino]imidazo[1,2-b]pyridazin-3-yl]-2-methoxy-phenol], the half-inhibitory concentration (IC50) came to 3520 nM. Same read-out and setting: next, `COc1ccccc1-c1ccc2ncc(-c3cccc(NC(C)=O)c3)n2n1` [Compound 321, N-[3-[6-(2-methoxyphenyl)imidazo[1,2-b]pyridazin-3-yl]phenyl] acetamide]: 2850 nM. The same measure, in the same setting: as for `CN(C)c1cccc(-c2cnc(N)c(-c3ccc(O)cc3)c2)c1` [382_7249_0135, 4-[2-amino-5-[3-(dimethylamino)phenyl]-3-pyridyl]phenol], the figure is 2190 nM. On the same count and under the same terms, as for `COc1ccc(-c2cncc(-c3ccc(O)c(OC)c3)n2)cc1` [035_0280_0314, 2-methoxy-4-[6-(4-methoxyphenyl)pyrazin-2-yl]phenol], the figure is 5180 nM; as for `OCc1cccc(-c2cnc3ccc(-c4cccc(O)c4)nn23)c1` [Compound 349, 3-[3-[3-(hydroxymethyl)phenyl]imidazo [1,2-b]pyridazin-6-yl]phenol], 954 nM. `Oc1ccc(-c2cnc3cnc(-c4ccc(NCCN5CCOCC5)nc4)cn23)cc1` [Compound 249, 4-[6-[6-(2-morpholino-ethylamino)-3-pyridyl]imidazo [1,2-a]pyrazin-3-yl]phenol]: the IC50 turned out to be 1310 nM. Same read-out and setting: as for `CC(=O)Nc1cccc(-c2cnc3ccc(-c4ccc(S(C)(=O)=O)cc4)nn23)c1` [Compound 278, N-[3-[6-(4-methylsulfonyl-phenyl)imidazo [1,2-b]pyridazin-3-yl]phenyl] acetamide], the figure is 1080 nM; as for `COc1ccc(-c2cnc3c(NC(C)=O)cc(-c4cccc(NC(C)=O)c4)cn23)cc1OC` [Compound 544, N-[3-[8-acetamido-3-(3,4-dimethoxy-phenyl)imidazo [1,2-a]pyridin-6-yl]phenyl] acetamide], 1600 nM. The same measure, in the same setting: next, `CN(C)CCNC(=O)c1cccc(-c2cnc3ccc(-c4cnn(C)c4)nn23)c1` [Compound 454, N-(2-dimethyl-aminoethyl)-3-[6-(1-methyl-pyrazol-4-yl)imidazo[1,2-b]pyridazin-3-yl]benzamide]: 1760 nM. With `Oc1cccc(-c2ccc3ncc(-c4cccnc4)n3n2)c1` [Compound 440, 3-[3-(3-pyridyl)imidazo [1,2-b]pyridazin-6-yl]phenol], the IC50 amounted to 1810 nM.

As for `Nc1cccc(-c2ccc3ncc(-c4ccc5c(c4)OCO5)n3n2)c1` [Compound 430, 3-[3-(1,3-benzodioxol-5-yl)imidazo[1,2-b]pyridazin-6-yl]aniline], the half-inhibitory concentration (IC50) stood at 843 nM. As to `COc1cc(-c2cnc3cnc(-c4cccnc4)cn23)ccc1O` [388_0314_0071, 2-methoxy-4-[6-(3-pyridyl)imidazo[1,2-a]pyrazin-3-yl]phenol], the IC50 is 3070 nM. Turning to `COc1ccccc1-c1cnn2ccc(NCc3cccnc3)nc12` [294_4003_0083, 3-(2-methoxyphenyl)-N-(3-pyridylmethyl) pyrazolo[1,5-a]pyrimidin-5-amine], the IC50 is 1220 nM. Same read-out and setting: next, `NC(=O)c1ccc(-c2ccc3ncc(-c4cccnc4)n3n2)cc1` [Compound 426, 4-[3-(3-pyridyl)imidazo [1,2-b]pyridazin-6-yl]benzamide]: 11200 nM; `OCc1ccc(-c2ccc3ncc(-c4cccnc4)n3n2)cc1` [Compound 361, [4-[3-(3-pyridyl)imidazo [1,2-b]pyridazin-6-yl]phenyl] methanol]: 2910 nM. Still for that read-out and setting: next, `OCc1ccc(-c2cnc3ccc(-c4ccccc4)nn23)cc1` [Compound 418, [4-(6-phenylimidazo [1,2-b]pyridazin-3-yl)phenyl] methanol]: 1460 nM; `CN(C)C(=O)c1cccc(-c2cnc3sc(NCC4CCOCC4)nn23)c1` [Compound 268, N,N-dimethyl-3-[2-(tetrahydro-pyran-4-ylmethylamino)imidazo[2,1-b] [1,3,4]thiadiazol-5-yl]benzamide]: 2730 nM; `COc1ccccc1-c1ccc2ncc(-c3cccc(O)c3)n2n1` [Compound 417, 3-[6-(2-methoxyphenyl)imidazo[1,2-b]pyridazin-3-yl]phenol]: 2740 nM. Still for that read-out and setting: next, `c1csc(-c2cn3c(-c4ccncc4)cnc3cn2)c1` [Compound 198, 3-(4-pyridyl)-6-(2-thienyl)imidazo [1,2-a]pyrazine]: 5690 nM; `Cn1cc(-c2cn3c(-c4ccsc4)cnc3cn2)cn1` [388_0074_8400, 6-(1-methylpyrazol-4-yl)-3-(3-thienyl)imidazo [1,2-a]pyrazine]: 6380 nM. Take `COc1ccc(-c2cnc3sc(NCCc4ccncc4)nn23)cn1` [Compound 552, 5-(6-methoxy-3-pyridyl)-N-[2-(4-pyridyl)ethyl] imidazo[2,1-b] [1,3,4]thiadiazol-2-amine]: the IC50 amounted to 2030 nM. On to `COc1cncc(-c2cnc3sc(NCc4cccs4)nn23)c1` [Compound 581, 5-(5-methoxy-3-pyridyl)-N-(2-thienylmethyl) imidazo[2,1-b] [1,3,4]thiadiazol-2-amine], for which the IC50 turned out to be 729 nM. With `COc1cccc(Nc2cc3[nH]c(-c4cn[nH]c4)cc3cn2)c1` [Compound 309, N-(3-methoxyphenyl)-2-(1H-pyrazol-4-yl)-1H-pyrrolo[3,2-c]pyridin-6-amine], the IC50 came out at 16600 nM. Same read-out and setting: next, `NS(=O)(=O)c1ccc(CCNc2nn3c(-c4cccnc4)cnc3s2)cc1` [Compound 553, 4-[2-[[5-(3-pyridyl)imidazo [2,1-d][1,3,4]thiadiazol-2-yl]amino]ethyl] benzene-sulfonamide]: 1880 nM.

The assay is the same for the next values; noted with them: secondary screen, re-synthesized and expanded compounds.
On to `CCCNc1ccc2ncc(-c3ccncc3)n2n1` [BF000147056, N-propyl-3-(4-pyridyl)-imidazo[1,2-b]pyridazin-6-amine], for which the IC50 amounted to 217 nM. The same measure, in the same setting: as for `c1csc(CNc2ccc3ncc(-c4ccncc4)n3n2)c1` [BF000145941, 3-(4-pyridyl)-N-(2-thienyl-methyl)-[1,2-a]pyridazin-6-amine], the figure is 105 nM.

`CC(=O)c1cccc(-c2cnc3ccc(-c4cccc(CO)c4)nn23)c1` [BF000726471, 1-[3-[6-[3-(hydroxy-methyl)-phenyl]-imidazo[1,2-b]pyridazin-3-yl]phenyl]-ethanone]: the IC50 was 291 nM. On the same count and under the same terms, as for `COc1cc(-c2cc(-c3ccc(N4CCN(C(C)C)CC4)cc3)cnc2N)ccc1O` [BF000817185], the figure is 78.1 nM; as for `COc1cc(-c2cnc(N)c(-c3cc(OC)c(OC)c(OC)c3)c2)cc(OC)c1OC` [BF000817175, 3,5-bis(3,4,5-trimethoxy-phenyl)-pyridin-2-amine], 85.4 nM.

In the case of `COc1cc(-c2cc(-c3ccc(S(C)(=O)=O)cc3)cnc2N)cc(OC)c1OC` [BF000312544, 5-(4-methyl-sulfonyl-phenyl)-3-(3,4,5-trimethoxy-phenyl)-pyridin-2-amine], the IC50 came out at 674 nM. The same measure, in the same setting: as for `COc1ccc(-c2ccc3ncc(-c4cccc(NC(C)=O)c4)n3n2)cc1OC` [BF000726345, N-[3-[6-(3,4-dimethoxy-phenyl)-imidazo[1,2-a]pyridazin-3-yl]phenyl]-acatamide], the figure is 313 nM.
